Laboratory results reported in patent publication US20240352021A1 (DANA-FARBER CANCER INSTITUTE, INC., priority 2021, published 2024).

What was measured:
EGFR L858R = EGFR L858R (Homo sapiens, UniProt P00533, L858R); test: EGFR biochemical assay (headed HTRF-based; method describes Z'-LYTE), L858R; conditions: Table 4
Experimental: (§1) To measure the IC50 values of compounds herein against EGFR, a Z′-LYTE assay (ThermoFisher) was used. Briefly, 2.5 μL of different concentrations of the compounds in 4% DMSO were added to 5 μL kinase/peptide mixture in each well of a 384-well plate (Corning Cat. #3676). 2.5 μL of 4× ATP solution (4× ATP, 50 mM HEPES, pH 7.5, 0.01% BRIJ-35, 10 mM MgCl2, 1 mM EGTA) were added to each well. The plate was shaken for 30 seconds, and then incubated at room temperature for 60 minutes. 5 μL of a 1:100000 dilution of Development Reagent A was added to each well. The plate was then incubated for 60 mins at room temperature. 5 μL of the stop reagent was then added. The plate was subsequently read on a fluorescence plate reader, and the emissions ratio was calculated to determine the ratio of Ser/Thr 07 phosphorylated by the reaction. Emissions Ratio═Coumarin Emission (443 nm)/Flourescein Emission (520 nm).
(§2) HTRF-based EGFR assay data are provided below in Table 4.

[1] = molecular target: EGFR mutant L858R Ba/F3 cells (Homo sapiens, UniProt P00533, L858R, cells depend on it); test: Ba/F3 cell proliferation (Cell Titer Glo), EGFR L858R; assay type: cell-based, murine; conditions: 72 hours, Table 6, read-out: L858R BaF3
EGFR mutant L858R Ba/F3 cells, sequence (P00533 whole entry L858R): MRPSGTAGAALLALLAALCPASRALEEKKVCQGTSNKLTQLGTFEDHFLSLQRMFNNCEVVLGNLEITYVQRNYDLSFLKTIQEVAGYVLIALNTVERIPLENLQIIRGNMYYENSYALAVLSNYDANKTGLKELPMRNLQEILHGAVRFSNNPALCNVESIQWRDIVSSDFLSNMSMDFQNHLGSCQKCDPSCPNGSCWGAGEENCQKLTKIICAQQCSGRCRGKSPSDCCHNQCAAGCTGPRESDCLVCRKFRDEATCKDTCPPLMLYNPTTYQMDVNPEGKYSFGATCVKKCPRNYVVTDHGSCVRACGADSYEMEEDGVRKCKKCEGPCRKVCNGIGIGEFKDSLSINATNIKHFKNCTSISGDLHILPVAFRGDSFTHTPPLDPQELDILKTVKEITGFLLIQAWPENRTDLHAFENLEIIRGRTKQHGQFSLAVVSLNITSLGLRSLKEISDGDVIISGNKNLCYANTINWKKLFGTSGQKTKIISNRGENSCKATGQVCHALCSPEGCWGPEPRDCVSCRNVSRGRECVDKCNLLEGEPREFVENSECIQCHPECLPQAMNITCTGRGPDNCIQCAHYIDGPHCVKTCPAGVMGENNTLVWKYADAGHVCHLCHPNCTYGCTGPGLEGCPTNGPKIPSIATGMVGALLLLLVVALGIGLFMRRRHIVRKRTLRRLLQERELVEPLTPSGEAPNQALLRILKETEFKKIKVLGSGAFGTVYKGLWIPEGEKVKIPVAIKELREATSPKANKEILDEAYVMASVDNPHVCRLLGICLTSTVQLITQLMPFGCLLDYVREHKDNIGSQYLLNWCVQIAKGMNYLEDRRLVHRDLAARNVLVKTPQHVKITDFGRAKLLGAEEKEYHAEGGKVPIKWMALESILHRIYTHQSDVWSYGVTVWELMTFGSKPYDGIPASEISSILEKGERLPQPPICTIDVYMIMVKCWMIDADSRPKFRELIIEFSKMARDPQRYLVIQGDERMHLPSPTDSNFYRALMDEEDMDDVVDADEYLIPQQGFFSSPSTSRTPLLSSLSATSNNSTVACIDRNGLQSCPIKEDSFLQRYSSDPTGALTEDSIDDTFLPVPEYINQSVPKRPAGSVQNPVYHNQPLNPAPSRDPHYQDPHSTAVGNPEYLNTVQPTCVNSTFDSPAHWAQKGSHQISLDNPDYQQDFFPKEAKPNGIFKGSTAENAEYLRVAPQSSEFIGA
In short: (§3)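 Retrovirally transduced, puromycin-selected Ba/F3 cells expressing EGFR L858R or L858R/C797S, grown in RPMI + 10% FBS, exposed to compounds for 72 h in triplicate. Viability by Cell Titer Glo ATP luminescence; IC50 from sigmoidal dose-response fit, binned A <0.1, B 0.1–0.5, C 0.5–2.5, D ≥2.5 μM.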

[2] = molecular target: EGFR L858R/C797S Ba/F3 cells (Homo sapiens, UniProt P00533, C797S/L858R, cells depend on it); test: Ba/F3 cell proliferation (Cell Titer Glo), EGFR L858R/C797S; assay type: cell-based, murine; conditions: 72 hours, Table 6
EGFR L858R/C797S Ba/F3 cells, sequence (P00533 whole entry C797S/L858R): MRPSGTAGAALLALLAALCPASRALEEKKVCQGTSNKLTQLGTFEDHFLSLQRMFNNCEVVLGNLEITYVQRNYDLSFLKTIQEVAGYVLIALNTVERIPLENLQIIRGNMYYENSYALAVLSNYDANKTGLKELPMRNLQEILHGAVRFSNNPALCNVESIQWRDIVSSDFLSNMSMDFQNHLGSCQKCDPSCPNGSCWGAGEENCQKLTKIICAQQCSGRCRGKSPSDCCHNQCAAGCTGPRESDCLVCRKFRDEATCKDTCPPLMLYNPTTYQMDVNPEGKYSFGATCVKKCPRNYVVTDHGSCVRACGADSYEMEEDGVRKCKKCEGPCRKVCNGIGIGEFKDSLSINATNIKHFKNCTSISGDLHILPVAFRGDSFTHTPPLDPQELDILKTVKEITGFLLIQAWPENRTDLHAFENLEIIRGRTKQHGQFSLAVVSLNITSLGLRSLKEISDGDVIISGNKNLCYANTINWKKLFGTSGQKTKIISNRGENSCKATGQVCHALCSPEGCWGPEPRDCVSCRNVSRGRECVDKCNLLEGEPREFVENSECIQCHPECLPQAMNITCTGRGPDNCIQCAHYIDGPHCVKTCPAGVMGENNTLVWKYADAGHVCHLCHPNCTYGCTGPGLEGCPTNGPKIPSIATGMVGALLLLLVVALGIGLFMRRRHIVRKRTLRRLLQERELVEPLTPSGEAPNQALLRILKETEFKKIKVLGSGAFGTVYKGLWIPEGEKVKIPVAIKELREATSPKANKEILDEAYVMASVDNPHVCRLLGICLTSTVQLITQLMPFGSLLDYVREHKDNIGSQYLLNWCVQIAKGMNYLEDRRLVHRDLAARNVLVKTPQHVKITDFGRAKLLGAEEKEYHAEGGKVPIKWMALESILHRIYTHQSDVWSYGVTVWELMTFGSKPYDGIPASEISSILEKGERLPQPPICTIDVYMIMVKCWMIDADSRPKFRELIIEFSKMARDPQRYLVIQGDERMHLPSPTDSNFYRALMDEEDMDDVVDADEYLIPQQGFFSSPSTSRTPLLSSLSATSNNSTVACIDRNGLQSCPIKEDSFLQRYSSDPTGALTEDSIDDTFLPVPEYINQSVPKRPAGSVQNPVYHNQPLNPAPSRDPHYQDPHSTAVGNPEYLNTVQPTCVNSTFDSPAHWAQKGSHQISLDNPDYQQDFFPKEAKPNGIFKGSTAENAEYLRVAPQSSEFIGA
In short: as §3

EGFR L858R/T790M = EGFR L858R/T790M (Homo sapiens, UniProt P00533, L858R/T790M); test: EGFR biochemical assay (headed HTRF-based; method describes Z'-LYTE), L858R/T790M; conditions: Table 4
EGFR L858R/T790M, sequence (P00533 25-1210 T790M/L858R): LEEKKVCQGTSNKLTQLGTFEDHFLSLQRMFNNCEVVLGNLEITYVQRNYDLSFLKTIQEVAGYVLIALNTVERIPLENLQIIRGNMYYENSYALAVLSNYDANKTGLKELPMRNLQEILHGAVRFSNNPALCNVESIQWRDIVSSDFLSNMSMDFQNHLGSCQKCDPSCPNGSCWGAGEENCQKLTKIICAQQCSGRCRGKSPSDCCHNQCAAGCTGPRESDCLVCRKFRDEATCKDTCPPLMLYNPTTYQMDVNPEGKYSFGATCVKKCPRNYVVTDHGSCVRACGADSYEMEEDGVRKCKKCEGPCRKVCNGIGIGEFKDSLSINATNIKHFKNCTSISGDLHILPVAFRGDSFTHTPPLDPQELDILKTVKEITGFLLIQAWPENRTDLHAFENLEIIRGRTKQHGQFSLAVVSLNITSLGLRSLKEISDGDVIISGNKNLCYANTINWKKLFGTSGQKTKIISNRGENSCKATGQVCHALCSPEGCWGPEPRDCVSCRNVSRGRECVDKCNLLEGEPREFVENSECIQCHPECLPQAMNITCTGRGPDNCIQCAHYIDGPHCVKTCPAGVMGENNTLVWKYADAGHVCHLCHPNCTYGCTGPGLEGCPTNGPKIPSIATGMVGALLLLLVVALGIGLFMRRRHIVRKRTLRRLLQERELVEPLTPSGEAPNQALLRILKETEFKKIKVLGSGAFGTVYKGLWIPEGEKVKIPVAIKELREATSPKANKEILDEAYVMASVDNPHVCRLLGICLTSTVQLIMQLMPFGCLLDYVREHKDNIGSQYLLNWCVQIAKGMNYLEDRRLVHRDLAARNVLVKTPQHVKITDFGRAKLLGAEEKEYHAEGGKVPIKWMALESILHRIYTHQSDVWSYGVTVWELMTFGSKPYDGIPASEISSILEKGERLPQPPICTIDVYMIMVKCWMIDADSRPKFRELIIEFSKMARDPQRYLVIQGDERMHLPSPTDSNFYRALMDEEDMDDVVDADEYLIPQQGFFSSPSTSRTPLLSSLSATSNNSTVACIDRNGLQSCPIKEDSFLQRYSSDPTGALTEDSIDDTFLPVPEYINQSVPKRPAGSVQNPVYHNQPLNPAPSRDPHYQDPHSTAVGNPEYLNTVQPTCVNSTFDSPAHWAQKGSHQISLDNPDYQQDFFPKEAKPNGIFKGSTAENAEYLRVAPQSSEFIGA
Experimental: as §1, §2

EGFR L858R, sequence (P00533 25-1210 L858R): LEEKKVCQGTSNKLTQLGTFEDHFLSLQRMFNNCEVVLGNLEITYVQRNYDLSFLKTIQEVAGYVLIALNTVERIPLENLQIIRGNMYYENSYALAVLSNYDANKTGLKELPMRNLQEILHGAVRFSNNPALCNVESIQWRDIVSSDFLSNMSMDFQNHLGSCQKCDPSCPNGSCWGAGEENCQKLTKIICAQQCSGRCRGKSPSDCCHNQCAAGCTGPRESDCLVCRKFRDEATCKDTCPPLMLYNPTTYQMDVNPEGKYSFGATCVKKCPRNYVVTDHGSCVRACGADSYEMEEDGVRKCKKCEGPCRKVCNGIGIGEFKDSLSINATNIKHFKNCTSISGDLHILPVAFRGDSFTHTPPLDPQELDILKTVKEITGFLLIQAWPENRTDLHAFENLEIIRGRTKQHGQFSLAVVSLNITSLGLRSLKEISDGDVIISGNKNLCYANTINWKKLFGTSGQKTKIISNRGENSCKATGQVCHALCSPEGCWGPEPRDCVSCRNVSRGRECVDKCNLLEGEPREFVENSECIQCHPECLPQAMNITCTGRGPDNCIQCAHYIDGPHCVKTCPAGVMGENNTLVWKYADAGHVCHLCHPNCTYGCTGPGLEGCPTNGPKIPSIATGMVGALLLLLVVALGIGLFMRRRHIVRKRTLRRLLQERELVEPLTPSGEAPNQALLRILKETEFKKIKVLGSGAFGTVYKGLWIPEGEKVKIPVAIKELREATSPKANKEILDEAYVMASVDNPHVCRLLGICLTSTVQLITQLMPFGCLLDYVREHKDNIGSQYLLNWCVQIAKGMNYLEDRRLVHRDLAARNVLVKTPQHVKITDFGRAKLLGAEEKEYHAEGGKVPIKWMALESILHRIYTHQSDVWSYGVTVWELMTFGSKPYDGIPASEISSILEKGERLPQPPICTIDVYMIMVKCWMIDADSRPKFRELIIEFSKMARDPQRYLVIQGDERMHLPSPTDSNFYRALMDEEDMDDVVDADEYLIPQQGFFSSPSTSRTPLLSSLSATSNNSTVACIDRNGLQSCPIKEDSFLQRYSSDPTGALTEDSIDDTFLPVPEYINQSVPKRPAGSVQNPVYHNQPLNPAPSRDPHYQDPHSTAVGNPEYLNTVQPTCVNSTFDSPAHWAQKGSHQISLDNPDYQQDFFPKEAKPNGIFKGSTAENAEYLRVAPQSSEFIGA

SMILES	IC50 (EGFR L858R) [nM]	GI50 [1] [nM]	GI50 [2] [nM]	IC50 (EGFR L858R/T790M) [nM]
C=CC(=O)N1CCC(N2Cc3cnc(Nc4ccc(N5CCN(C)CC5)cc4)nc3N(C)C2=O)[C@@H](N)C1 (stereo in doubt) [Compound 149, rel-(3S,4S)—S-(3-amino-1-prop-2-enoyl-4-piperidyl)-1-methyl-7-[4-(4-methylpiperazin-1-yl)anilino]-4H-pyrimido[4,5-d]pyrimidin-2-one]	> 1000	≥ 2500	≥ 2500	> 1000
C=CC(=O)N1CCC(N2Cc3cnc(Nc4ccc(N5CCN(C)CC5)cc4)nc3N(C)C2=O)c2cccc(C#N)c21 (centres unmarked) [Compound 150, 4-[1-methyl-7-[4-(4-methylpiperazin-1-yl)anilino]-2-oxo-4H-pyrimido[4,5-d]pyrimidin-S-yl]-1-prop-2-enoyl-3,4-dihydro-2H-quinoline-8-carbonitrile]	> 1000	500 to 2500	500 to 2500	> 1000
